Data published in paper PMC10253456, “Investigating the Contribution of Major Drug-Metabolising Enzymes to Possum-Specific Fertility Control” (International Journal of Molecular Sciences, 2023).
Counter-ions that a name gives are not always drawn.

Key:
CYP3A [1] = assay: CYP3A catalytic activity (erythromycin N-demethylation) in possum liver microsomes; details: for Percent control catalytic activity at estimated IC50 / Percent control catalytic activity at estimated 2-fold IC50: possum liver microsomes, initial screen n=1; for Percent control catalytic activity at estimated IC50: compounds without reported IC50 at 1 µM; for Percent control catalytic activity at estimated 2-fold IC50: compounds without reported IC50 at 5 µM; for % of control (catalytic activity at 2-fold IC50) / Catalytic activity at 2-fold IC50: compound at estimated 2-fold IC50 (5 µM where none reported)
Experimental: (§1) Possums were collected from the Otago Peninsula (Dunedin) and the Okuti Valley, Banks Peninsula (Christchurch) in New Zealand in collaboration with the Otago Peninsula Biodiversity Group and Manaaki Whenua-Landcare Research, respectively. […] Possums were caged and humanely killed by a blow to the head, and the livers were harvested, snap-frozen in liquid nitrogen, and stored in a freezer at −80 °C until the preparation of microsomal fractions. […] Mice were euthanised by carbon dioxide inhalation and the livers were removed and microsomes prepared. […] The livers from avian species (mallards and a swan) were kindly donated by a local bird hunting group based in Dunedin, New Zealand. The livers from avian species were treated similarly to those mentioned above for the possum samples.
(§2) Microsomal preparation was carried out as previously described [76]. […] All procedures were performed at 0–4 °C. The liver samples were minced and homogenised in Buffer A (0.1 M Tris, 0.1 M potassium chloride, 1 mM EDTA, and 20 μM butylated hydroxytoluene, at pH = 7.4) using the Teflon-glass homogeniser (5–6 vertical passes). The samples were centrifuged at 10,000× g for 20 min. The supernatant was then transferred into another set of centrifuge tubes and spun at 100,000× g for 60 min. The pellet was resuspended in Buffer B (0.1 M potassium pyrophosphate, 1 mM EDTA, and 20 μM butylated hydroxytoluene, at pH = 7.4), homogenised, and recentrifuged at 100,000× g for 60 min. Finally, the pellet was homogenised in 1–2 mL of Buffer C (10 mM Tris-HCl, 1 mM EDTA, and 4% glycerol (v/v)), and stored at −80 °C until use. The protein concentration of the microsomes was determined using the bicinchoninic acid (BCA) method [77].
(§3) CYP3A catalytic activity was determined using the erythromycin N-demethylation activity assay, as described [78]. The reaction mixture (final volume of 1 mL and final protein concentration of 1 mg) contained 500 µL of microsomes in 0.1 M phosphate buffer (pH 7.4) and 400 µL of erythromycin buffer (0.45 mM), and 50 µL of the test compound was pre-warmed at 37 °C for 2 min. The reaction was initiated with 50 µL of 2.5 mM nicotinamide adenine dinucleotide phosphate (NADP^+) and incubated for 30 min at 37 °C. […] The tubes were vortexed and left for 5 min (at room temperature), and then 330 µL of saturated barium hydroxide was added. The tubes were further vortexed and left for 5 min (at room temperature). The tubes were then centrifuged at 1800× g for 10 min. To 830 µL of the supernatant, 330 µL of Nash reagent (30% (w/v) ammonium acetate, 0.4% (v/v) acetylacetone) was added and further incubated for 30 min at 60 °C. The blank tube contained 330 µL of Nash reagent and 830 µL of Milli-Q water. […] The CYP3A activities were determined in nmol/mg/min using standard curve data. Results presented are the mean ± SEM of 3 independent experiments performed in duplicate unless otherwise stated.

CYP3A [2] = assay: CYP3A catalytic activity (erythromycin N-demethylation) in mouse liver microsomes; details: for Percent control catalytic activity at estimated IC50 / Percent control catalytic activity at estimated 2-fold IC50: mouse liver microsomes, initial screen n=1; for Percent control catalytic activity at estimated IC50: compounds without reported IC50 at 1 µM; for Percent control catalytic activity at estimated 2-fold IC50: compounds without reported IC50 at 5 µM; for % of control (catalytic activity at 2-fold IC50) / Catalytic activity at 2-fold IC50: compound at estimated 2-fold IC50 (5 µM where none reported)
Experimental: as §1, §2, §3

Compound	Percent control catalytic activity at estimated IC50 (CYP3A [1])	Percent control catalytic activity at estimated 2-fold IC50 (CYP3A [1])	Percent control catalytic activity at estimated IC50 (CYP3A [2])	Percent control catalytic activity at estimated 2-fold IC50 (CYP3A [2])	% of control (catalytic activity at 2-fold IC50) (CYP3A [1]; possum)	Catalytic activity at 2-fold IC50 (CYP3A [1]; possum)	% of control (catalytic activity at 2-fold IC50) (CYP3A [2]; mouse)	Catalytic activity at 2-fold IC50 (CYP3A [2]; mouse)	% of control (catalytic activity at IC50) (CYP3A [1]; possum, compound at estimated IC50 (1 µM where none reported))	% of control (catalytic activity at IC50) (CYP3A [2]; mouse, compound at estimated IC50 (1 µM where none reported))
O=C1c2ccc(O)cc2C(=O)c2ccc(O)cc21 [2,6-Dihydroxyanthraquinone]	97 percent control	102 percent control	106 percent control	128 percent control	–	–	–	–	–	–
CC(=O)O[C@H]1CC[C@@]2(C)C(=CC[C@@H]3[C@@H]2CC[C@]2(C)C(c4cccnc4)=CC[C@@H]32)C1 [Abiraterone Acetate]	128 percent control	110 percent control	85 percent control	89 percent control	–	–	–	–	–	–
O=c1cc(-c2ccc(O)cc2)oc2cc(O)cc(O)c12 [Apigenin]	94 percent control	121 percent control	116 percent control	106 percent control	–	–	–	–	–	–
CC(C)c1cc(C(C)C)c(CC(=O)NS(=O)(=O)Oc2c(C(C)C)cccc2C(C)C)c(C(C)C)c1 [Avasimibe]	–	–	91 percent control	92 percent control	–	–	–	–	–	–
O=[N+]([O-])c1cn(C(c2ccccc2)(c2ccccc2)c2ccccc2)cn1 [CDD3505]	129 percent control	145 percent control	88 percent control	89 percent control	–	–	–	–	–	–
O=C(O)[C@H](O)Cc1ccc(O)c(O)c1 [Danshensu]	113 percent control	–	97 percent control	–	–	–	–	–	–	–
COc1cc2c(cc1OC)[C@@H](Cc1ccc(Oc3cc(C[C@@H]4c5cc(OC)c(OC)cc5CCN4C)ccc3O)cc1)N(C)CC2 [Dauricine]	108 percent control	117 percent control	113 percent control	112 percent control	–	–	–	–	–	–
O=C(O)c1ccc(-n2nc(-c3ccccc3O)nc2-c2ccccc2O)cc1 [Deferasirox]	93 percent control	–	87 percent control	–	–	–	–	–	–	–
C=CCSCC=C [Diallyl sulfide]	103 percent control	96 percent control	72 percent control	84 percent control	–	–	–	–	–	–
O=c1c(O)c(-c2ccccc2)oc2cc(O)cc(O)c12 [Galangin]	115 percent control	103 percent control	131 percent control	123 percent control	–	–	–	–	–	–
CC12CC3CC(C)(C1)CC(N)(C3)C2 [Memantine HCl]	117 percent control	109 percent control	104 percent control	98 percent control	–	–	–	–	–	–
O=C1C[C@@H](c2ccc(O)cc2)Oc2cc(O)cc(O)c21 [Naringenin]	84 percent control	–	71 percent control	–	175 % of control	0.56 ± 0.02 nmol/mg/min	240 % of control	1.09 ± 0.04 nmol/mg/min	–	–
C[C@@H]1O[C@@H](O[C@H]2[C@H](Oc3cc(O)c(C(=O)CCc4ccc(O)cc4)c(O)c3)O[C@H](CO)[C@@H](O)[C@@H]2O)[C@H](O)[C@H](O)[C@H]1O [Naringin Dihydrochalcone]	111 percent control	87 percent control	92 percent control	96 percent control	92 % of control	0.33 ± 0.02 nmol/mg/min	102 % of control	0.54 ± 0.07 nmol/mg/min	106 % of control	97 % of control
Cl.O=C(O)/C=C/c1ccc(Cn2ccnc2)cc1 [Ozagrel HCl]	121 percent control	95 percent control	92 percent control	85 percent control	–	–	–	–	–	–
O=C(O)/C=C/c1ccc(Cn2ccnc2)cc1 [Ozagrel]	97 percent control	109 percent control	93 percent control	92 percent control	–	–	–	–	–	–
Cc1ccc(-c2c(-c3nn(C)c4ncnc(N5CC[C@H](N6CCCCC6)C5)c34)cnn2C)cc1 [PF-4981517]	98 percent control	108 percent control	101 percent control	110 percent control	–	–	–	–	–	–
COc1c(OC)c2occc2c2oc(=O)ccc12 [Pimpinellin]	133 percent control	–	171 percent control	–	–	–	–	–	–	–
CCc1ccc(CCOc2ccc(CC3SC(=O)NC3=O)cc2)nc1 (stereo not drawn) [Pioglitazone HCl]	99 percent control	87 percent control	98 percent control	100 percent control	–	–	–	–	–	–
